By solubility is commonly meant how much of the substance goes into solution per volume. One may read the AUC(0-inf) as total exposure, with the tail of the curve extrapolated. One may read the Cmax as the highest concentration seen after dosing. By Tmax is commonly meant the time at which the peak concentration occurs.

We go through five molecules from patent US20090053306A1, “Pharmaceutical Compositions of a 5-HT2A Serotonin Receptor Modulator Useful for the Treatment of Disorders Related Thereto” (priority 2005, published 2009).

In brackets after ≈: the same amount, converted by molar mass. Read-outs that look alike come from different tables or passages of the source.

One series addresses 5-HT2A (Homo sapiens, UniProt P28223). Conditions: cited from earlier work.
The test system of the next series is JC virus. Conditions: cited from earlier work.
Series [1] is described as follows: Solubility determination in selected excipients (HPLC). It is filed as physicochemical. Particulars: thermodynamic from solid. The protocol:
The vial contents were mixed for 30 seconds using a VWR mini vortexter followed by sonication (Branson 1510) for 1 minutes. Vials were placed into a constant temperature bath (i.e., about 25° C.) and allowed to equilibrate for no less than 12 hours. The resulting suspensions were transferred to eppendorf tubes each equipped with a 0.2 μm nylon filter (Costar 8168) and were centrifuged for 10 minutes at 14,000 rpms. The supernatant from each eppendorf tube was collected and diluted with HPLC grade acetonitrile or methonal with appropriate dilution factor. Each solution was analyzed by an HPLC method.
As an example, the following HPLC assay was used to determine the aqueous solubility of 1-[3-(4-bromo-2-methyl-2H-pyrazol-3-yl)-4-methoxy-phenyl]-3-(2,4-difluoro-phenyl)-urea:
HPLC System: Waters 2795; Stationary phase: Xterra® column, MS C18, 3.5 μm, 4.6×50 mm; Mobile phase: Line A: 100% De-ionized-Millipore water; Line B: 1.0% NH4OH; Line C: 100% HPLC grade Acetonitrile; Gradient: A: 80% to 0% in 8 minute; B: 10% constant in 8 minute; C: 10% to 90% in 8 minute; Flow rate: 1.50 mL/min; Column temperature: 40° C.±5° C.; Sample temperature: 25° C.±5° C.
Photodiode Array Detector: Waters 2996 with UV lamp: 3D data collection; Start wavelength: 210 nm; end wavelength: 320 nm.
Processing wavelength: 220 nm.
Quantification was effected by comparison of the HPLC peak area for each test solution with the peak area taken from a standard plot of concentration versus peak area for standards of known concentration. As is conventional, the standard concentrations for 1-[3-(4-bromo-2-methyl-2H-pyrazol-3-yl)-4-methoxy-phenyl]-3-(2,4-difluoro-phenyl)-urea were selected to fall within a linear range of concentration versus absorbance for the UV detector employed. The standard concentration for 1-[3-(4-bromo-2-methyl-2H-pyrazol-3-yl)-4-methoxy-phenyl]-3-(2,4-difluoro-phenyl)-urea was diluted in serial fashion to obtain a calibration curve. Dilution was effected by adding the acetonitrile from mobile phase. Each saturated equilibrium solution for 1-[3-(4-bromo-2-methyl-2H-pyrazol-3-yl)-4-methoxy-phenyl]-3-(2,4-difluoro-phenyl)-urea obtained after filtering the test vial solutions was diluted with acetonitrile or methonal with appropriate dilution factor to reach the linear range of the standard plot.

Series [2] can be described thus: Plasma pharmacokinetics in healthy male and female volunteers following oral administration of a capsule formulated dose. It counts as in vivo. Particulars: both sexes, human, capsule with Cremephor RH40. How it is done: Plasma pharmacokinetics for 1-[3-(4-bromo-2-methyl-2H-pyrazol-3-yl)-4-methoxy-phenyl]-3-(2,4-difluoro-phenyl)-urea were determined in healthy male and female volunteers following oral administration of a capsule formulated dose of 1-[3-(4-bromo-2-methyl-2H-pyrazol-3-yl)-4-methoxy-phenyl]-3-(2,4-difluoro-phenyl)-urea and Cremephor RH40.

Series [3] deals with 5-HT2A serotonin receptor (Homo sapiens, UniProt P28223). Particulars: cited from earlier work.
For the next series, the system named is diabetic rats. Particulars: cited from earlier work.
For series [4] the following is noted: glaucoma patients; cited from earlier work.
The conditions of series [5]: patients, 24 months of treatment; cited from earlier work.

Chain of 5-HT2A (P28223 whole entry): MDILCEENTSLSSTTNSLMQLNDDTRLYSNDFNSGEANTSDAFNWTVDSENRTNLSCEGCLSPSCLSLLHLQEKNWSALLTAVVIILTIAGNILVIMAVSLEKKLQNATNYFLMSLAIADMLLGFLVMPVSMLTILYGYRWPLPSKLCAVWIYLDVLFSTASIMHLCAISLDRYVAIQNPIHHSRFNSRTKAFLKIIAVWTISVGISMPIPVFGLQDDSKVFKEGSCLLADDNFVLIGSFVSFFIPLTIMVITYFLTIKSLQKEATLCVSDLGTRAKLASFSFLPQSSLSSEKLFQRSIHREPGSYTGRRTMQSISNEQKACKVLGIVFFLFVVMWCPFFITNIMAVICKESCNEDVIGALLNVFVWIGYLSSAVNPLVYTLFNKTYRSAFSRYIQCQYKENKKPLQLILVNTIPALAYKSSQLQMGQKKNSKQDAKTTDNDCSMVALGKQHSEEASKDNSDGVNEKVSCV
Chain of 5-HT2A serotonin receptor (P28223 whole entry): as above

In the case of `O=C(c1ccc(F)cc1)C1CCN(CCn2c(=O)[nH]c3ccccc3c2=O)CC1` [ketanserin], the “inverse agonist activity at 5-HT2A” value on 5-HT2A is “have inverse agonist activity”. Also, in the series on JC virus, the “JC virus infection of human glial cells” value was “inhibited JC virus infection”.

In the case of `COc1ccc(NC(=O)Nc2ccc(F)cc2F)cc1-c1c(Br)cnn1C` [1-[3-(4-bromo-2-methyl-2H-pyrazol-3-yl)-4-methoxy-phenyl]-3-(2,4-difluoro-phenyl)-urea], the solubility in series [1] (0.01 N HCl, 25 °C, pH 2, simulated gastric fluid, 0.01 N HCl (about pH 2), read-out: aqueous solubility) was not above 0.01 mg/mL; in series [1] (0.01 N HCl, 25 °C, pH 2, simulated gastric fluid, at 25° C. in 0.01 N HCl (pH 2), read-out: Solubility), less than 0.01 mg/mL; in series [1] (25 mM phosphate buffer, 25 °C, pH 7, aqueous buffer, at 25° C. in 25 mM Phosphate buffer (pH 7), read-out: Solubility), less than 0.01 mg/mL; in series [1] (0.05% Tween 80 & 0.5% Methocel, 25 °C, aqueous with cosolvent or surfactant or cyclodextrin, at 25° C. in 0.05% Tween 80 & 0.5% Methocel, read-out: Solubility), less than 0.01 mg/mL; in series [1] (1% Tween 80, 25 °C, aqueous with cosolvent or surfactant or cyclodextrin, at 25° C. in 1% Tween 80, read-out: Solubility), 0.4 mg/mL (≈ 0.915 mM); in series [1] (5% Gum Arabic, 25 °C, aqueous with cosolvent or surfactant or cyclodextrin, at 25° C. in 5% Gum Arabic, read-out: Solubility), less than 0.01 mg/mL. The solubility was 0.4 mg/mL (≈ 0.915 mM) in series [1] (50% Captisol, 25 °C, aqueous with cosolvent or surfactant or cyclodextrin, at 25° C. in 50% Captisol, read-out: Solubility); 196 mg/mL (≈ 448 mM) in series [1] (Cremophor RH 40, 25 °C, organic solvent or mixture, at 25° C. in Cremophor RH 40, read-out: Solubility); 29.9 mg/mL (≈ 68.4 mM) in series [1] (Labrafil M 1944 CS, 25 °C, oil or lipid, at 25° C. in Labrafil M 1944 CS, read-out: Solubility); 32.7 mg/mL (≈ 74.8 mM) in series [1] (Labrafil M 2125 CS, 25 °C, oil or lipid, at 25° C. in Labrafil M 2125 CS, read-out: Solubility); 348 mg/mL (≈ 796 mM) in series [1] (Labrasol, 25 °C, oil or lipid, at 25° C. in Labrasol, read-out: Solubility); more than 150 mg/mL in series [1] (PEG 300, 25 °C, organic solvent or mixture, at 25° C. in PEG 300, no suspension observed, read-out: Solubility). The solubility in series [1] (PEG 400, 25 °C, organic solvent or mixture, at 25° C. in PEG 400, read-out: Solubility) was 377 mg/mL (≈ 861 mM); in series [1] (PEG 600, 25 °C, organic solvent or mixture, at 25° C. in PEG 600, no suspension observed, read-out: Solubility), more than 325 mg/mL; in series [1] (Softigen 767, 25 °C, oil or lipid, at 25° C. in Softigen 767, no suspension observed, read-out: Solubility), more than 200 mg/mL; in series [1] (Transcutol P, 25 °C, organic solvent or mixture, at 25° C. in Transcutol P, no suspension observed, read-out: Solubility), more than 200 mg/mL; in series [1] (Tween 20, 25 °C, organic solvent or mixture, at 25° C. in Tween 20, no suspension observed, read-out: Solubility), more than 160 mg/mL; in series [1] (Tween 80, 25 °C, organic solvent or mixture, at 25° C. in Tween 80, read-out: Solubility), 320 mg/mL (≈ 732 mM). Also, the solubility is less than 0.01 mg/mL in series [1] (deionized water, 25 °C, water, at 25° C. in Deionized water, read-out: Solubility); not above 0.01 mg/mL in series [1] (deionized water, 25 °C, water, deionized water, read-out: aqueous solubility); not above 0.01 mg/mL in series [1] (phosphate buffer, 25 °C, pH 7, aqueous buffer, phosphate buffer (about pH 7), read-out: aqueous solubility); less than 0.01 mg/mL in series [1] (saline (0.9% NaCl solution), 25 °C, saline or isotonic, at 25° C. in Saline (0.9% NaCl solution), read-out: Solubility); not above 0.01 mg/mL in series [1] (saline (about 0.9% NaCl solution), 25 °C, saline or isotonic, saline (about 0.9% NaCl solution), read-out: aqueous solubility). Also, the AUC(0-inf) in series [2] (single oral dose 10 mg) worked out at 51 ng·h/mL; in series [2] (single oral dose 20 mg), 181 ng·h/mL; in series [2] (single oral dose 40 mg) it was 395 ng·h/mL; in series [2] (single oral dose 80 mg), 612 ng·h/mL; in series [2] (single oral dose 160 mg) it was 739 ng·h/mL. Besides, the Cmax came out at 18 ng/mL in series [2] (single oral dose 10 mg); 58 ng/mL in series [2] (single oral dose 20 mg); 113 ng/mL in series [2] (single oral dose 40 mg); 118 ng/mL in series [2] (single oral dose 80 mg); 125 ng/mL in series [2] (single oral dose 160 mg). The Tmax in series [2] (single oral dose 10 mg) stood at 1.2 h; in series [2] (single oral dose 20 mg), 1.2 h; in series [2] (single oral dose 40 mg), 1.5 h; in series [2] (single oral dose 80 mg), 1.2 h; in series [2] (single oral dose 160 mg), 1.5 h. Also, the “effectiveness as a modulator of the 5-HT2A serotonin receptor” value in series [3] is “especially effective as a modulator of the 5-HT2A serotonin receptor”.

On to `COc1cccc(CCc2ccccc2OCC(CN(C)C)OC(=O)CCC(=O)O)c1` (stereo not drawn) [sarpogrelate], for which, in the series on diabetic rats, the “14.9% reduction in saphenous sensory conduction velocity” value (“14.9% reduction” for short) is reported as “completely reversed” and the “44.7% reduction in sciatic endoneurial blood flow” value (from here on “44.7% reduction”) is “completely reversed”. The IOP entry in series [4] is recorded as “significantly lower IOP”. For the same molecule, in series [5], the “urinary albumin excretion level” value is “significantly reduced”.

Regarding `O=CN1CCC(C(=O)NCCN2CCC(=C3c4ccccc4C=Cc4ccccc43)CC2)CC1` [AT-1015], in the series on diabetic rats, the “14.9% reduction” value is “completely reversed” and the “44.7% reduction” value is reported as “completely reversed”.

For `Cc1nc2sccn2c(=O)c1CCN1CCC(=C(c2ccc(F)cc2)c2ccc(F)cc2)CC1` [ritanserin], in the series with diabetic rats, the “14.9% reduction” value is on record as “completely reversed” and the “44.7% reduction” value is listed as “completely reversed”. For the same molecule, the “inverse agonist activity at 5-HT2A” value at 5-HT2A is reported as “have inverse agonist activity”. In addition, the “JC virus infection of human glial cells” value with JC virus is given as “inhibited JC virus infection”.
